Data on 13 molecules can be found in US12037340B2, “Pentacyclic derivatives as Zika virus inhibitors” (Gilead Sciences, Inc., priority 2021, dated 2024).

Molecules are shown by their SMILES.

The subject of one experiment is ZIKV. Nature of the experiment: microbe, parasite or virus in culture. The format is cell-based, Zika virus. The settings on record: 48 hrs.
Take `COC[C@H]1C[C@@H](c2nc(Cl)c(-c3ccc4c(c3)COc3cc5c(ccc6nc([C@@H]7CC[C@H](C)N7C(=O)[C@@H](NC(=O)OC)C(C)C)[nH]c65)cc3-4)[nH]2)N(C(=O)[C@@H](NC(=O)OC)C(C)(C)C(F)(F)F)C1` [Compound 20, methyl ((S)-1-((2S,5S)-2-(9-(4-chloro-2-((2S,4S)-4-(methoxymethyl)-1-((S)-4,4,4-trilluoro-2-((methoxycarbonyl)amino)-3,3-dimethylbutanoyl)pyrrolidin-2-yl)-1H-imidazol-5-yl)-1,11-dihydroisochromeno[4′,3′:6,7]naphtho[1,2-d]imidazol-2-yl)-5-methylpyrrolidin-1-yl)-3-methyl-1-oxobutan-2-yl)carbamate]: the concentration giving a half-maximal response (EC50) came to 5.4 nM. That is a single-digit nanomolar value.

On to `COC(=O)N[C@H](C(=O)N1[C@@H](C)CC[C@H]1c1nc(C2CC2)c(-c2ccc3c(c2)COc2cc4c(ccc5nc([C@@H]6CC[C@H](C)N6C(=O)[C@@H](NC(=O)OC)C(C)(C)C(F)(F)F)[nH]c54)cc2-3)[nH]1)C(C)(C)C(F)(F)F` [Compound 41, methyl ((S)-1-((2S,5S)-2-(4-cyclopropyl-5-(2-((2S,5S)-5-methyl-1-((S)-4,4,4-trifluoro-2-((methoxycarbonyl)amino)-3,3-dimethylbutanoyl)pyrrolidin-2-yl)-1,11-dihydroisochromeno[4′,3′:6,7]naphtho[1,2-d]imidazol-9-yl)-1H-imidazol-2-yl)-5-methylpyrrolidin-1-yl)-4,4,4-trilluoro-3,3-dimethyl-1-oxobutan-2-yl)carbamate], for which the half-maximal effective concentration (EC50) worked out at 4.8 nM.

Still in this experiment, the particulars now being: Zika virus, Huh-7; 48 hrs.
With `COC(=O)N[C@H](C(=O)N1[C@@H](C)CC[C@H]1c1nc(Cl)c(-c2ccc3c(c2)COc2cc4c(ccc5nc([C@@H]6CC[C@H](C)N6C(=O)[C@@H](NC(=O)OC)C(C)(C)CF)[nH]c54)cc2-3)[nH]1)C(C)(C)CF` [Compound 32, methyl ((S)-1-((2S,5S)-2-(4-chloro-5-(2-((2S,5S)-1-((S)-4-fluoro-2-((methoxycarbonyl)amino)-3,3-dimethylbutanoyl)-5-methylpyrrolidin-2-yl)-1,11-dihydroisochromeno[4′,3′:6,7]naphtho[1,2-d]imidazol-9-yl)-1H-imidazol-2-yl)-5-methylpyrrolidin-1-yl)-4-fluoro-3,3-dimethyl-1-oxobutan-2-yl)carbamate], the EC50 was 5.9 nM.

Turning to `COC(=O)N[C@H](C(=O)N1[C@@H](C)CC[C@H]1c1nc(C(C)C)c(-c2ccc3c(c2)COc2cc4c(ccc5nc([C@@H]6CC[C@H](C)N6C(=O)[C@@H](NC(=O)OC)C(C)(C)CF)[nH]c54)cc2-3)[nH]1)C(C)(C)CF` [Compound 47, methyl ((S)-4-fluoro-1-((2S,5S)-2-(5-(2-((2S,5S)-1-((S)-4-fluoro-2-((methoxycarbonyl)amino)-3,3-dimethylbutanoyl)-5-methylpyrrolidin-2-yl)-1,11-dihydroisochromeno[4′,3′:6,7]naphtho[1,2-d]imidazol-9-yl)-4-isopropyl-1H-imidazol-2-yl)-5-methylpyrrolidin-1-yl)-3,3-dimethyl-1-oxobutan-2-yl)carbamate], the EC50 came to 21.7 nM.

`CC[C@H](C)[C@H](NC(=O)OC)C(=O)N1[C@@H](C)CC[C@H]1c1nc(C(C)C)c(-c2ccc3c(c2)COc2cc4c(ccc5nc([C@@H]6CC[C@H](C)N6C(=O)[C@@H](NC(=O)OC)[C@@H](C)CC)[nH]c54)cc2-3)[nH]1` [Compound 44, methyl ((2S,3S)-1-((2S,5S)-2-(4-isopropyl-5-(2-((2S,5S)-1-((methoxycarbonyl)-L-isoleucyl)-5-methylpyrrolidin-2-yl)-1,11-dihydroisochromeno[4′,3′:6,7]naphtho[1,2-d]imidazol-9-yl)-1H-imidazol-2-yl)-5-methylpyrrolidin-1-yl)-3-methyl-1-oxopentan-2-yl)carbamate] displayed a concentration giving a half-maximal response (EC50) of 11.5 nM.

For `COC(=O)N[C@H](C(=O)N1CCC[C@H]1c1nc(Cl)c(-c2ccc3c(c2)COc2cc4c(ccc5nc([C@@H]6CCCN6C(=O)[C@@H](NC(=O)OC)C(C)C)[nH]c54)cc2-3)[nH]1)C(C)C` [Compound 26, methyl ((S)-1-((S)-2-(4-chloro-5-(2-((S)-1-((methoxycarbonyl)-L-valyl)pyrrolidin-2-yl)-1,11-dihydroisochromeno[4′,3′:6,7]naphtho[1,2-d]imidazol-9-yl)-1H-imidazol-2-yl)pyrrolidin-1-yl)-3-methyl-1-oxobutan-2-yl)carbamate], the midpoint of the response, the EC50, lay at 85.4 nM.

`CC[C@H](C)[C@H](NC(=O)OC)C(=O)N1C[C@@H](COC)C[C@H]1c1nc(Br)c(-c2ccc3c(c2)COc2cc4c(ccc5nc([C@@H]6CC[C@H](C)N6C(=O)[C@@H](NC(=O)OC)C(C)C)[nH]c54)cc2-3)[nH]1` [Compound 17, methyl ((S)-1-((2S,5S)-2-(9-(4-bromo-2-((2S,4S)-1-((methoxycarbonyl)-L-isoleucyl)-4-(methoxymethyl)pyrrolidin-2-yl)-1H-imidazol-5-yl)-1,11-dihydroisochromeno[4′,3′:6,7]naphtho[1,2-d]imidazol-2-yl)-5-methylpyrrolidin-1-yl)-3-methyl-1-oxobutan-2-yl)carbamate]: the concentration giving a half-maximal response (EC50) was 15.6 nM. This EC50 lies about 5.5-fold lower than the previous one.

Consider `COC(=O)N[C@H](C(=O)N1[C@@H](C)CC[C@H]1c1nc(Br)c(-c2ccc3c(c2)COc2cc4c(ccc5nc([C@@H]6CC[C@H](C)N6C(=O)[C@@H](NC(=O)OC)C6C[C@@H](C)O[C@H](C)C6)[nH]c54)cc2-3)[nH]1)C1CC(C)O[C@H](C)C1` (stereo in doubt) [Compound 10, methyl ((S)-2-((2S,5S)-2-(9-(4-bromo-2-((2S,5S)-1-((S)-2-((2R,6R)-2,6-dimethyltetrahydro-2H-pyran-4-yl)-2-((methoxycarbonyl)amino)acetyl)-5-methylpyrrolidin-2-yl)-1H-imidazol-5-yl)-1,11-dihydroisochromeno[4′,3′:6,7]naphtho[1,2-d]imidazol-2-yl)-5-methylpyrrolidin-1-yl)-1-((2R,6R)-2,6-dimethyltetrahydro-2H-pyran-4-yl)-2-oxoethyl)carbamate], for which the response was half-maximal at 18.8 nM (EC50).

For the molecule `CC[C@H]1CC[C@@H](c2nc3ccc4cc5c(cc4c3[nH]2)OCc2cc(-c3[nH]c([C@@H]4CC[C@H](C)N4C(=O)[C@@H](NC(=O)OC)C(C)C)nc3Cl)ccc2-5)N1C(=O)[C@@H](NC(=O)OC)C1CCOCC1` [Compound 12, methyl ((S)-2-((2S,5S)-2-(9-(4-chloro-2-((2S,5S)-1-((methoxycarbonyl)-L-valyl)-5-methylpyrrolidin-2-yl)-1H-imidazol-5-yl)-1,11-dihydroisochromeno[4′,3′:6,7]naphtho[1,2-d]imidazol-2-yl)-5-ethylpyrrolidin-1-yl)-2-oxo-1-(tetrahydro-2H-pyran-4-yl)ethyl)carbamate], the response was half-maximal at 12.1 nM (EC50).

`COC(=O)N[C@H](C(=O)N1[C@@H](C)CC[C@H]1c1nc(Cl)c(-c2ccc3c(c2)COc2cc4c(ccc5nc([C@@H]6CC[C@H](C)N6C(=O)[C@@H](NC(=O)OC)C6C[C@@H](C)O[C@H](C)C6)[nH]c54)cc2-3)[nH]1)C1CC(C)O[C@H](C)C1` (stereo in doubt) [Compound 9, methyl ((S)-2-((2S,5S)-2-(9-(4-chloro-2-((2S,5S)-1-((S)-2-((2R,6R)-2,6-dimethyltetrahydro-2H-pyran-4-yl)-2-((methoxycarbonyl)amino)acetyl)-5-methylpyrrolidin-2-yl)-1H-imidazol-5-yl)-1,11-dihydroisochromeno[4′,3′:6,7]naphtho[1,2-d]imidazol-2-yl)-5-methylpyrrolidin-1-yl)-1-((2R,6R)-2,6-dimethyltetrahydro-2H-pyran-4-yl)-2-oxoethyl)carbamate] had a concentration for a half-maximal effect (EC50) of 48.1 nM.

The molecule `COC(=O)N[C@H](C(=O)N1[C@@H](C)CC[C@H]1c1nc(C(C)C)c(-c2ccc3c(c2)COc2cc4c(ccc5nc([C@@H]6CC[C@H](C)N6C(=O)[C@@H](NC(=O)OC)C(C)(C)C(F)(F)F)[nH]c54)cc2-3)[nH]1)C(C)(C)C(F)(F)F` [Compound 45, methyl ((S)-4,4,4-trifluoro-1-((2S,5S)-2-(4-isopropyl-5-(2-((2S,5S)-5-methyl-1-((S)-4,4,4-trifluoro-2-((methoxycarbonyl)amino)-3,3-dimethylbutanoyl)pyrrolidin-2-yl)-1,11-dihydroisochromeno[4′,3′:6,7]naphtho[1,2-d]imidazol-9-yl)-1H-imidazol-2-yl)-5-methylpyrrolidin-1-yl)-3,3-dimethyl-1-oxobutan-2-yl)carbamate] showed an EC50 of 4.9 nM.

For `CC[C@H](C)[C@H](NC(=O)OC)C(=O)N1C[C@@H](COC)C[C@H]1c1nc(C2CC2)c(-c2ccc3c(c2)COc2cc4c(ccc5nc([C@@H]6CC[C@H](C)N6C(=O)[C@@H](NC(=O)OC)C(C)C)[nH]c54)cc2-3)[nH]1` [Compound 18, methyl ((S)-1-((2S,5S)-2-(9-(4-cyclopropyl-2-((2S,4S)-1-((methoxycarbonyl)-L-isoleucyl)-4-(methoxymethyl)pyrrolidin-2-yl)-1H-imidazol-5-yl)-1,11-dihydroisochromeno[4′,3′:6,7]naphtho[1,2-d]imidazol-2-yl)-5-methylpyrrolidin-1-yl)-3-methyl-1-oxobutan-2-yl)carbamate], the 50% effective concentration (EC50) was 7.7 nM.

With `COC[C@H]1C[C@@H](c2nc(Cl)c(-c3ccc4c(c3)COc3cc5c(ccc6nc([C@@H]7CC[C@H](C)N7C(=O)[C@@H](NC(=O)OC)C(C)C)[nH]c65)cc3-4)[nH]2)N(C(=O)[C@@H](NC(=O)OC)C2CCOCC2)C1` [Compound 6, methyl ((S)-1-((2S,5S)-2-(9-(4-chloro-2-((2S,4S)-1-((S)-2-((methoxycarbonyl)amino)-2-(tetrahydro-2H-pyran-4-yl)acetyl)-4-(methoxymethyl)pyrrolidin-2-yl)-1H-imidazol-5-yl)-1,11-dihydroisochromeno[4′,3′:6,7]naphtho[1,2-d]imidazol-2-yl)-5-methylpyrrolidin-1-yl)-3-methyl-1-oxobutan-2-yl)carbamate], a half-maximal response (EC50) required 133 nM.
